Test results published in ChEMBL document CHEMBL5126637, “Discovery of Phenolic Matrix Metalloproteinase Inhibitors by Peptide Microarray for Osteosarcoma Treatment” (J Nat Prod, 2022).
Calls of active or inactive are those of the source. No cut-off for these calls is given here.

Key:
[1] = biological target: T1, Matrix metalloproteinase-9 (Homo sapiens, UniProt P14780); assay: Inhibition of MMP9 in human U2OS cells at 5 umol/L by peptide microarray-based fluorescence assay; assay type: cell-based; conditions: dose 5.0 µmol/L
[2] = biological target: T2, 72 kDa type IV collagenase (Homo sapiens, UniProt P08253); assay: Inhibition of MMP2 in human U2OS cells at 5 umol/L by peptide microarray-based fluorescence assay; assay type: cell-based; conditions: dose 5.0 µmol/L
Target sequence in this assay (P08253 110-660 limits assumed): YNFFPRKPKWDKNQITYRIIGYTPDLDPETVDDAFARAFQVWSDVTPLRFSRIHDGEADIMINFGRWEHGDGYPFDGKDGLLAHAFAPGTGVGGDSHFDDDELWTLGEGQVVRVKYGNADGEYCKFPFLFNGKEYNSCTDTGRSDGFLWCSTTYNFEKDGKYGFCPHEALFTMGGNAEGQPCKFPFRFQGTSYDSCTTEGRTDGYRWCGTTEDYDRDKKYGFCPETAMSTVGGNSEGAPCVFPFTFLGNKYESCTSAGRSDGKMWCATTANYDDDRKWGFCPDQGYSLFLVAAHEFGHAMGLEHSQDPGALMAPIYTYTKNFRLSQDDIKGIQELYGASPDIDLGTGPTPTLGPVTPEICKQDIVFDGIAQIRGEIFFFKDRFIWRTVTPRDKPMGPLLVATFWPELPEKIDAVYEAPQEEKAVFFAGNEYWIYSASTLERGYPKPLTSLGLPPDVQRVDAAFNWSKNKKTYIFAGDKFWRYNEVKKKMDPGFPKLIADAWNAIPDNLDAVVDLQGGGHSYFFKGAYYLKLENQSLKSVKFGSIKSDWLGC

[3] = biological target: T3, Interstitial collagenase (Homo sapiens) (UniProt P03956); assay: Inhibition of MMP1 in human U2OS cells at 5 umol/L by peptide microarray-based fluorescence assay; assay type: cell-based; conditions: dose 5.0 µmol/L
T3 sequence (whole entry): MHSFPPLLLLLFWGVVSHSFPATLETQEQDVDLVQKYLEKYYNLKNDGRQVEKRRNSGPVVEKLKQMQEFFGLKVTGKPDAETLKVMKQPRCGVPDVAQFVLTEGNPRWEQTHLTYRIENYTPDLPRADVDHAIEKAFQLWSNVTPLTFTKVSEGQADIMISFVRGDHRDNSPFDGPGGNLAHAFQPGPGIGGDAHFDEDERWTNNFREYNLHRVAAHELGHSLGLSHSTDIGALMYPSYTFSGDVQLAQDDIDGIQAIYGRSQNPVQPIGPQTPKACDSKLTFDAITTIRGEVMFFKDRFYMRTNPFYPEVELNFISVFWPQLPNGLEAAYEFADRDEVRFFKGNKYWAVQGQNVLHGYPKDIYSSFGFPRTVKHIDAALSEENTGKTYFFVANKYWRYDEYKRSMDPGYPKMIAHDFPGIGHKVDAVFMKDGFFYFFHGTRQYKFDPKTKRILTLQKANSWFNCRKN

[4] = biological target: T4, Matrilysin (Homo sapiens) (UniProt P09237); assay: Inhibition of MMP7 in human U2OS cells at 5 umol/L by peptide microarray-based fluorescence assay; assay type: cell-based; conditions: dose 5.0 µmol/L
T4 sequence (whole entry): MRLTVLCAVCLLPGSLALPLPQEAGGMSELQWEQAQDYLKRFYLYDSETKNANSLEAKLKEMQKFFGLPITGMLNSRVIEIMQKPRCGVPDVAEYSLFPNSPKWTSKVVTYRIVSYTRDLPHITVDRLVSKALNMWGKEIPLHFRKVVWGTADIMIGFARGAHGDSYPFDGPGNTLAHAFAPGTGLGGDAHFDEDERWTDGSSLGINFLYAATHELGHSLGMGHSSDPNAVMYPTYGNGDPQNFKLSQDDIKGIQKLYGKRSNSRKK

[5] = biological target: T5, Collagenase 3 (Homo sapiens, UniProt P45452); assay: Inhibition of MMP13 in human U2OS cells at 5 umol/L by peptide microarray-based fluorescence assay; assay type: cell-based; conditions: dose 5.0 µmol/L
[6] = biological target: T3, Interstitial collagenase (Homo sapiens); assay: Inhibition of MMP1 in human U2OS cells at 1 umol/L by peptide microarray-based fluorescence assay; assay type: cell-based; conditions: dose 1.0 µmol/L
[7] = biological target: T4, Matrilysin (Homo sapiens); assay: Inhibition of MMP7 in human U2OS cells at 1 umol/L by peptide microarray-based fluorescence assay; assay type: cell-based; conditions: dose 1.0 µmol/L
[8] = tested on: U2OS; assay: Inhibition of cell migration of human U2OS cells at 2.5 umol/L incubated for 24 hrs by would healing assay; assay type: functional, cell-based; conditions: dose 2.5 µmol/L
[9] = Toxicity in human MDA-MB-231 cells assessed as cell viability at 2.5 umol/L incubated for 24 hrs by MTT assay relative to control; assay type: cell-based; conditions: dose 2.5 µmol/L, read-out: Activity
[10] = tested on: U2OS; assay: Antitumor activity against human U2OS cells xenografted in NOD/SCID mouse assessed as inhibition of tumor growth at 18 ug, iv dosed once every 2 days for 6 days successively relative to control; assay type: functional; conditions: dose 18 µg, time 6 day
[11] = biological target: T5, Collagenase 3; assay: Inhibition of MMP13 in human U2OS cells by peptide microarray-based fluorescence assay; assay type: cell-based
[12] = biological target: T1, Matrix metalloproteinase-9; assay: Inhibition of MMP9 in human U2OS cells by peptide microarray-based fluorescence assay; assay type: cell-based
[13] = tested on: U2OS; assay: Antitumor activity against human U2OS cells xenografted in NOD/SCID mouse assessed as inhibition of distant organ metastasis at 18 ug, iv dosed once every 2 days for 6 days successively relative to control; assay type: functional, organism-based; conditions: dose 18.0 µg, time 6.0 day
[14] = Toxicity in human MCF7 cells assessed as cell viability at 2.5 umol/L incubated for 24 hrs by MTT assay relative to control; assay type: cell-based; conditions: dose 2.5 µmol/L, read-out: Activity
[15] = Toxicity in Kunming mouse assessed as induction of adverse effect or tissue damage in major organs measured after 14 days; conditions: in vivo, 336 h, time 14 day
[16] = Toxicity in human NCM460 cells assessed as cell viability at 2.5 umol/L incubated for 24 hrs by MTT assay relative to control; assay type: cell-based; conditions: dose 2.5 µmol/L, read-out: Activity
[17] = Toxicity in human HEK293T cells assessed as cell viability at 2.5 umol/L incubated for 24 hrs by MTT assay relative to control; assay type: cell-based, HEK-293T; conditions: dose 2.5 µmol/L, read-out: Activity
[18] = biological target: T2, 72 kDa type IV collagenase; assay: Inhibition of MMP2 in human U2OS cells by peptide microarray-based fluorescence assay; assay type: cell-based
Target sequence in this assay (P08253 whole entry): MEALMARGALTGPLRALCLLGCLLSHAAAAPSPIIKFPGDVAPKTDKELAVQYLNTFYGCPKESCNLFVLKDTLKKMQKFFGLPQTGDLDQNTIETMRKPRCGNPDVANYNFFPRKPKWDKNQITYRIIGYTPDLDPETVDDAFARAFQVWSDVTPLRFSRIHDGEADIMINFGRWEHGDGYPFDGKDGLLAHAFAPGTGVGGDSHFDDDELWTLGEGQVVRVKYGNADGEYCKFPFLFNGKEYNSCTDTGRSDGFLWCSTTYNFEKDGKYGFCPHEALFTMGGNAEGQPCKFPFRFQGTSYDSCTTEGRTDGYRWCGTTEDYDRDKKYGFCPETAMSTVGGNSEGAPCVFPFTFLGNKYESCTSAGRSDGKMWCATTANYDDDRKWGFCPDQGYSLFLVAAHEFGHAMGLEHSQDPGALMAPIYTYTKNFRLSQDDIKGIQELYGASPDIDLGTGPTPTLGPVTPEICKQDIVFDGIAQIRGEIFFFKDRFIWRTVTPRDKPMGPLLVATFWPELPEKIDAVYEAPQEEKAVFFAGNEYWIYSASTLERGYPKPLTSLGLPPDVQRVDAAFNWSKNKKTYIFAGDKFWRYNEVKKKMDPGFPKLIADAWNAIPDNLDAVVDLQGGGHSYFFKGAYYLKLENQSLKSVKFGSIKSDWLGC

[19] = Toxicity in Kunming mouse assessed as effect on body weight changes measured after 14 days; conditions: in vivo, 336 h, time 14 day
[20] = tested on: U2OS; assay: Antitumor activity against human U2OS cells xenografted in NOD/SCID mouse assessed as inhibition of tumor growth at 100 mg/kg, po dosed once every 2 days for 2 weeks relative to control; assay type: functional; conditions: 1008 h, time 6 weeks, read-out: TGI
[21] = tested on: U2OS; assay: Antitumor activity against human U2OS cells xenografted in NOD/SCID mouse assessed as time duration with 100% survival with at 18 ug, iv dosed once every 2 days for 6 days successively relative to control; assay type: functional; conditions: dose 18 µg, time 6 day
[22] = biological target: T6, Stromelysin-1 (Homo sapiens, UniProt P08254); assay: Inhibition of MMP3 in human U2OS cells by peptide microarray-based fluorescence assay; assay type: cell-based
Target sequence in this assay (P08254 whole entry): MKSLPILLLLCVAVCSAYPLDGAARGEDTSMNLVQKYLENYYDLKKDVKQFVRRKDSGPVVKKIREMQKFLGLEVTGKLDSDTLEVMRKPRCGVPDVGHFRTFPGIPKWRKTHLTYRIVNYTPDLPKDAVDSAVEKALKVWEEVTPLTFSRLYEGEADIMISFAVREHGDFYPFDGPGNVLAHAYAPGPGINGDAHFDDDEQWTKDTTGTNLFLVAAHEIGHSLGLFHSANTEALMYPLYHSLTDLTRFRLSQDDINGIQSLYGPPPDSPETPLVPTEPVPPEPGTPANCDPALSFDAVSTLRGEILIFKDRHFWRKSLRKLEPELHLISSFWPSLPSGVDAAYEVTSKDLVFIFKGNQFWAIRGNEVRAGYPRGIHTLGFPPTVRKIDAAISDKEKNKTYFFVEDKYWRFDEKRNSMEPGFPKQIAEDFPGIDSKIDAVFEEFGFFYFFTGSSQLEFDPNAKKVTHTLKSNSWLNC

[23] = biological target: T7, Matrilysin (Homo sapiens, UniProt P09237); assay: Inhibition of MMP7 in human U2OS cells by peptide microarray-based fluorescence assay; assay type: cell-based
T7 sequence (P09237 whole entry): T4 sequence (whole entry)

[24] = Toxicity in human HCT-116 cells assessed as cell viability at 2.5 umol/L incubated for 24 hrs by MTT assay relative to control; assay type: cell-based; conditions: dose 2.5 µmol/L, read-out: Activity
[25] = biological target: T5, Collagenase 3; assay: Inhibition of MMP13 in human U2OS cells at 1 umol/L by peptide microarray-based fluorescence assay; assay type: cell-based; conditions: dose 1.0 µmol/L
[26] = biological target: T1, Matrix metalloproteinase-9; assay: Inhibition of MMP9 in human U2OS cells at 1 umol/L by peptide microarray-based fluorescence assay; assay type: cell-based; conditions: dose 1.0 µmol/L
[27] = tested on: U2OS; assay: Antitumor activity against human U2OS cells xenografted in NOD/SCID mouse assessed as inhibition of growth of both primary and metastatic tumors at 18 ug, iv dosed once every 2 days for 6 days successively relative to control; assay type: functional, organism-based; conditions: dose 18.0 µg, time 6.0 day
[28] = Toxicity in human U2OS cells assessed as cell viability at 2.5 umol/L incubated for 24 hrs by MTT assay relative to control; assay type: cell-based; conditions: dose 2.5 µmol/L, read-out: Activity
[29] = biological target: T6, Stromelysin-1; assay: Inhibition of MMP3 in human U2OS cells at 1 umol/L by peptide microarray-based fluorescence assay; assay type: cell-based; conditions: dose 1.0 µmol/L
Target sequence in this assay (P08254 100-477 limits assumed): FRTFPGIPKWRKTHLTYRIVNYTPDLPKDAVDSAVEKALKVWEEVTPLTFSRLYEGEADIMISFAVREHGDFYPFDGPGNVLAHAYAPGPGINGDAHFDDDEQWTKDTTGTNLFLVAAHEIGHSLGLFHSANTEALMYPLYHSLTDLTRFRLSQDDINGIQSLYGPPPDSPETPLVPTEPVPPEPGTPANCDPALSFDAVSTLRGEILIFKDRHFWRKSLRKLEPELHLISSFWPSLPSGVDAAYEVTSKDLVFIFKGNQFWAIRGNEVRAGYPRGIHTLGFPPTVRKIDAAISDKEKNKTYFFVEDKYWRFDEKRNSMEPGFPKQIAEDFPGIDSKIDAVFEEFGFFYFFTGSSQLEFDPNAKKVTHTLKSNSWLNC

[30] = Toxicity in human HL7702 cells assessed as cell viability at 2.5 umol/L incubated for 24 hrs by MTT assay relative to control; assay type: cell-based, L02; conditions: dose 2.5 µmol/L, read-out: Activity
[31] = biological target: T2, 72 kDa type IV collagenase; assay: Inhibition of MMP2 in human U2OS cells at 1 umol/L by peptide microarray-based fluorescence assay; assay type: cell-based; conditions: dose 1.0 µmol/L
Target sequence in this assay (P08253 110-660 limits assumed): as the sequence (P08253 110-660 limits assumed) above

[32] = Toxicity in Kunming mouse assessed as effect on blood components measured after 14 days; conditions: in vivo, 336 h, time 14 day
[33] = biological target: T8, Interstitial collagenase (Homo sapiens, UniProt P03956); assay: Inhibition of MMP1 in human U2OS cells by peptide microarray-based fluorescence assay; assay type: cell-based
T8 sequence (P03956 whole entry): T3 sequence (whole entry)

[34] = biological target: T6, Stromelysin-1; assay: Inhibition of MMP3 in human U2OS cells at 5 umol/L by peptide microarray-based fluorescence assay; assay type: cell-based; conditions: dose 5.0 µmol/L
Target sequence in this assay (P08254 100-477 limits assumed): as the sequence (P08254 100-477 limits assumed) above

[35] = tested on: U2OS; assay: Antitumor activity against human U2OS cells xenografted in NOD/SCID mouse assessed as time duration with 100% survival with at 34 ug, iv dosed once every 2 days for 6 days successively relative to control; assay type: functional; conditions: dose 34 µg, time 6 day
[36] = tested on: U2OS; assay: Antitumor activity against human U2OS cells xenografted in NOD/SCID mouse assessed as inhibition of growth of both primary and metastatic tumors at 34 ug, iv dosed once every 2 days for 6 days successively relative to control; assay type: functional, organism-based; conditions: dose 34.0 µg, time 6.0 day
[37] = tested on: U2OS; assay: Antitumor activity against human U2OS cells xenografted in NOD/SCID mouse assessed as inhibition of distant organ metastasis at 34 ug, iv dosed once every 2 days for 6 days successively relative to control; assay type: functional, organism-based; conditions: dose 34.0 µg, time 6.0 day
[38] = tested on: U2OS; assay: Antitumor activity against human U2OS cells xenografted in NOD/SCID mouse assessed as inhibition of tumor growth at 34 ug, iv dosed once every 2 days for 6 days successively relative to control; assay type: functional; conditions: dose 34 µg, time 6 day

T1 sequence (P14780 whole entry): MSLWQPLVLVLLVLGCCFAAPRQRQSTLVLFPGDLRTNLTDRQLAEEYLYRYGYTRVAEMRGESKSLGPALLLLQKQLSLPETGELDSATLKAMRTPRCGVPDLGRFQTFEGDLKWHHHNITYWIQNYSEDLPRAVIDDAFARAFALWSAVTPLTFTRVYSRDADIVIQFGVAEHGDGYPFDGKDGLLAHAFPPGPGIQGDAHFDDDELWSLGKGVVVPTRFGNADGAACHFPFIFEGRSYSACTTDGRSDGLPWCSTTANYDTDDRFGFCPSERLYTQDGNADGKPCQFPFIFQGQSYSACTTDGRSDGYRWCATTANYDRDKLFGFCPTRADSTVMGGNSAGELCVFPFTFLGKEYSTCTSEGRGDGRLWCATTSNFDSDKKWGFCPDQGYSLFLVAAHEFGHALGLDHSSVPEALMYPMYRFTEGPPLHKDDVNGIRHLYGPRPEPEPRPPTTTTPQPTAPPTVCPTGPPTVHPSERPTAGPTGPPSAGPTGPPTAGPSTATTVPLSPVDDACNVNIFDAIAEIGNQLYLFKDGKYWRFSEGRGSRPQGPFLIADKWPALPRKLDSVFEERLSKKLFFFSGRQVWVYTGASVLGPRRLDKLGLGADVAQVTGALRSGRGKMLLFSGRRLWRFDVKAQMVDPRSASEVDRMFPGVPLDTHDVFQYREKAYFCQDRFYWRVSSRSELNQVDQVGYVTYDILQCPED

Compound	inhibition [1]	inhibition [2]	inhibition [3]	inhibition [4]	inhibition [5]	inhibition [6]	inhibition [8]	viability at 24 h, 2.5 µM [9]	IC50 [11]	viability at 24 h, 2.5 µM [14]	Activity [15]	viability at 24 h, 2.5 µM [16]	viability at 24 h, 2.5 µM [17]	Activity [19]	viability at 24 h, 2.5 µM [24]	inhibition [25]	viability at 24 h, 2.5 µM [28]	viability at 24 h, 2.5 µM [30]	Activity [32]	other results
O=C(O)[C@H]1O[C@@H](Oc2cc3oc(-c4ccc(O)cc4)cc(=O)c3c(O)c2O)[C@H](O)[C@@H](O)[C@@H]1O	> 50%	> 50%	> 50%	> 50%	> 50%															
CNC(=O)[C@@H](NC(=O)[C@H](CC(C)C)[C@H](O)C(=O)NO)C(C)(C)C						Active														
O=C(/C=C/c1ccc(O)cc1)c1ccc(O)cc1O [ISOLIQUIRITIGENIN]	> 50%	> 50%	> 50%	> 50%	> 50%	Active	Active	> 90%	14 nM	> 90%	Non-Toxic	> 90%	> 90%	Non-Toxic	> 90%	Active	> 90%	> 90%	Non-Toxic	inhibition [7]: Active; TGI [10]: 80%; IC50 [12]: 10 nM; inhibition [13]: Active; IC50 [18]: 10 nM; inhibition in vivo at 100 mg/kg [20]: 72%; Survival [21]: 70 days; IC50 [22]: 81 nM; IC50 [23]: 8 nM; inhibition [26]: Active; inhibition [27]: Active; inhibition [29]: Active; inhibition [31]: Active; IC50 [33]: 16 nM; inhibition [34]: > 50%
COc1cc(C2Oc3ccc([C@H]4Oc5cc(O)cc(O)c5C(=O)[C@@H]4O)cc3OC2CO)ccc1O (some centres undefined)	> 50%				> 50%		Active	> 90%	250 nM	> 90%	Non-Toxic	> 90%	> 90%	Non-Toxic	> 90%	Active	> 90%	> 90%	Non-Toxic	Survival [35]: 43 days; inhibition [36]: Active; inhibition [37]: Active; TGI [38]: 60%
